{"source": "patent US8013006B2", "key": {"HCV replicon": {"test_system": "HCV replicon", "test": "microbe, parasite or virus in culture", "format": "cell-based", "details": "Hepatitis C virus, 48 h, read-out: Replicon IC5Os"}}}
{"compound": "CCn1c(-c2ccc3c(c2)CCN3C(=O)NC(C)C)c(C#N)c2ccc(OC)cc21", "note": "[Compound 681]", "values": [{"measurement": "IC50", "setting": "HCV replicon", "result": "500 to 2000", "unit": "nM"}, {"measurement": "melting point", "result": "192 to 197", "unit": "°C"}]}
{"compound": "CCOc1ccc2c(C#N)c(-c3ccc(N(C)S(C)(=O)=O)cc3)n(C3CCC3)c2c1", "note": "[Compound 690]", "values": [{"measurement": "IC50", "setting": "HCV replicon", "result": "500 to 2000", "unit": "nM"}, {"measurement": "melting point", "result": "192 to 193", "unit": "°C"}]}
{"compound": "CCOc1ccc2c(C#N)c(-c3ccc(N(C)S(=O)(=O)CC)cc3)n(C)c2c1", "note": "[Compound 692]", "values": [{"measurement": "IC50", "setting": "HCV replicon", "result": "500 to 2000", "unit": "nM"}, {"measurement": "melting point", "result": "175 to 176", "unit": "°C"}]}
{"compound": "CCOc1ccc2c(C#N)c(-c3ccc(N(C)S(=O)(=O)CC)cc3)n(CC)c2c1", "note": "[Compound 693]", "values": [{"measurement": "IC50", "setting": "HCV replicon", "result": "< 500", "unit": "nM"}, {"measurement": "melting point", "result": "163 to 164", "unit": "°C"}]}
{"compound": "CCn1c(-c2ccc(N3CCCS3(=O)=O)cc2)c(C#N)c2ccc(OCCF)cc21", "note": "[Compound 699]", "values": [{"measurement": "IC50", "setting": "HCV replicon", "result": "< 500", "unit": "nM"}, {"measurement": "melting point", "result": "255 to 258", "unit": "°C"}]}
{"compound": "CCn1c(-c2ccc3c(c2)CCN3S(C)(=O)=O)c(C#N)c2ccc(OC)cc21", "note": "[Compound 701]", "values": [{"measurement": "IC50", "setting": "HCV replicon", "result": "500 to 2000", "unit": "nM"}, {"measurement": "melting point", "result": "188 to 194", "unit": "°C"}]}
{"compound": "CCn1c(-c2ccc3c(c2)CCN3S(=O)(=O)CC)c(C#N)c2ccc(OC)cc21", "note": "[Compound 702]", "values": [{"measurement": "IC50", "setting": "HCV replicon", "result": "500 to 2000", "unit": "nM"}, {"measurement": "melting point", "result": "147 to 150", "unit": "°C"}]}
{"compound": "CCCCn1c(-c2ccc(NS(=O)(=O)CC)cc2)c(C#N)c2ccc(OC)cc21", "note": "[Compound 707]", "values": [{"measurement": "IC50", "setting": "HCV replicon", "result": "500 to 2000", "unit": "nM"}, {"measurement": "melting point", "result": "159 to 161", "unit": "°C"}]}
{"compound": "CCCCn1c(-c2ccc(NS(=O)(=O)C3CC3)cc2)c(C#N)c2ccc(OC)cc21", "note": "[Compound 709]", "values": [{"measurement": "IC50", "setting": "HCV replicon", "result": "< 500", "unit": "nM"}, {"measurement": "melting point", "result": "166 to 168", "unit": "°C"}]}
{"compound": "CCCn1c(-c2ccc(NS(=O)(=O)CC)cc2)c(C#N)c2cc(OCc3ccccc3)ccc21", "note": "[Compound 713]", "values": [{"measurement": "IC50", "setting": "HCV replicon", "result": "500 to 2000", "unit": "nM"}, {"measurement": "melting point", "result": "199 to 202", "unit": "°C"}]}
{"compound": "COc1ccc2c(C#N)c(-c3ccc(N4CCCS4(=O)=O)cc3)n(CC(C)C)c2c1", "note": "[Compound 717]", "values": [{"measurement": "IC50", "setting": "HCV replicon", "result": "500 to 2000", "unit": "nM"}, {"measurement": "melting point", "result": "205 to 207", "unit": "°C"}]}
{"compound": "COc1ccc2c(C#N)c(-c3cccc(NS(C)(=O)=O)c3)n(C3CCCC3)c2c1", "note": "[Compound 720]", "values": [{"measurement": "IC50", "setting": "HCV replicon", "result": "500 to 2000", "unit": "nM"}, {"measurement": "melting point", "result": "172 to 178", "unit": "°C"}]}
{"compound": "COc1ccc2c(C#N)c(-c3cccc(NC(=O)OC(C)C)c3)n(C3CCCC3)c2c1", "note": "[Compound 723]", "values": [{"measurement": "IC50", "setting": "HCV replicon", "result": "500 to 2000", "unit": "nM"}, {"measurement": "melting point", "result": "175 to 180", "unit": "°C"}]}
{"compound": "CCn1c(-c2ccc(N3CCN(Cc4ccccc4)S3(=O)=O)cc2)c(C#N)c2ccc(OC)cc21", "note": "[Compound 727]", "values": [{"measurement": "IC50", "setting": "HCV replicon", "result": "500 to 2000", "unit": "nM"}, {"measurement": "melting point", "result": "217 to 218", "unit": "°C"}]}
{"compound": "CCn1c(-c2ccc(N3CCCC3=O)cc2)c(C#N)c2ccc(OC(C)C)cc21", "note": "[Compound 731]", "values": [{"measurement": "IC50", "setting": "HCV replicon", "result": "< 500", "unit": "nM"}, {"measurement": "melting point", "result": "173 to 174", "unit": "°C"}]}
{"compound": "COc1ccc2c(C#N)c(-c3ccc(N4CCCC4=O)cc3)n(CCF)c2c1", "note": "[Compound 732]", "values": [{"measurement": "IC50", "setting": "HCV replicon", "result": "500 to 2000", "unit": "nM"}, {"measurement": "melting point", "result": "219 to 221", "unit": "°C"}]}
{"compound": "COC(=O)Nc1ccc(-c2c(C#N)c3ccc(OC(F)F)cc3n2CC2CC2)cc1", "note": "[Compound 734]", "values": [{"measurement": "IC50", "setting": "HCV replicon", "result": "500 to 2000", "unit": "nM"}, {"measurement": "melting point", "result": "167 to 169", "unit": "°C"}]}
{"compound": "CCOC(=O)Nc1ccc(-c2c(C#N)c3ccc(OC(F)F)cc3n2CC2CC2)cc1", "note": "[Compound 735]", "values": [{"measurement": "IC50", "setting": "HCV replicon", "result": "< 500", "unit": "nM"}, {"measurement": "melting point", "result": "123 to 125", "unit": "°C"}]}
{"compound": "CC(C)OC(=O)Nc1ccc(-c2c(C#N)c3ccc(OC(F)F)cc3n2CC2CC2)cc1", "note": "[Compound 737]", "values": [{"measurement": "IC50", "setting": "HCV replicon", "result": "500 to 2000", "unit": "nM"}, {"measurement": "melting point", "result": "153 to 155", "unit": "°C"}]}
{"compound": "N#Cc1c(-c2ccc(NC(=O)OCCF)cc2)n(CC2CC2)c2cc(OC(F)F)ccc12", "note": "[Compound 738]", "values": [{"measurement": "IC50", "setting": "HCV replicon", "result": "< 500", "unit": "nM"}, {"measurement": "melting point", "result": "149 to 151", "unit": "°C"}]}
{"compound": "CCCNC(=O)Nc1ccc(-c2c(C#N)c3ccc(OC(F)F)cc3n2CC2CC2)cc1", "note": "[Compound 741]", "values": [{"measurement": "IC50", "setting": "HCV replicon", "result": "< 500", "unit": "nM"}, {"measurement": "melting point", "result": "194 to 196", "unit": "°C"}]}
{"compound": "CCCCNC(=O)Nc1ccc(-c2c(C#N)c3ccc(OC(F)F)cc3n2CC2CC2)cc1", "note": "[Compound 742]", "values": [{"measurement": "IC50", "setting": "HCV replicon", "result": "500 to 2000", "unit": "nM"}, {"measurement": "melting point", "result": "171 to 173", "unit": "°C"}]}
{"compound": "N#Cc1c(-c2ccc(NC(=O)NC3CCCC3)cc2)n(CC2CC2)c2cc(OC(F)F)ccc12", "note": "[Compound 743]", "values": [{"measurement": "IC50", "setting": "HCV replicon", "result": "< 500", "unit": "nM"}, {"measurement": "melting point", "result": 129, "unit": "°C"}]}
{"compound": "COC(=O)Nc1cccc(-c2c(C#N)c3ccc(OC(F)F)cc3n2CC2CC2)c1", "note": "[Compound 744]", "values": [{"measurement": "IC50", "setting": "HCV replicon", "result": "< 500", "unit": "nM"}, {"measurement": "melting point", "result": "92 to 93", "unit": "°C"}]}
